The values below come from US20100166781A1, “HAT ACETYLATION PROMOTERS AND USES OF COMPOSITIONS THEREOF IN PROMOTING IMMUNOGENICITY” (Tapimmune, Inc., priority 2008, published 2010).

“Also recorded” adds a separate entry of the source. Read-outs that look alike come from different tables or passages of the source.

For test [1], the system named is TAP-1 promoter. The test can be described thus: Luciferase assay in cells stably transfected with pTAP-1-luc construct. In kind it is cell-based, murine. From the text: A plasmid containing an EGFP gene driven by the TAP-1 promoter (pTAP-1-EGFP) was constructed as described previously. A similar construct containing a luciferase gene driven by the TAP-1 promoter (pTAP-1-luc) was created by inserting the TAP-1 promoter between the Sac I and BgI II sites of pGL4.14[luc2/Hygro] vector (Promega, Madison, Wis.). Several truncated TAP-1 promoter constructs were also made by cloning its 5′-end truncations into pGL4.14[luc2/Hygro] vector. Primers were used for PCR amplifications of the full TAP-1 promoter and its truncations.
TC-1, D11, A9, PA and LMD cells were transfected with the TAP-1 promoter constructs or the promoterless pGL4.14[luc2/Hygro] vector using ExGen 500 in vitro Transfection Reagent (Fermentas). Transient transfectants were analyzed between 12-72 hours after transfection. To obtain stable transfectants, the transfected cells were selected for 3 weeks in the presence of the following concentrations of Hygromycin B (Sigma): 550 ng/ml for TC-1 cells, 250 ng/ml for D11, A9 and LMD cells, 200 ng/ml for PA cells.
Relative luciferase activity (RLA) in transient transfectants was assessed by dual luciferase assay (Promega) within 12-72 hours after transfection. RLA in stable transfectants (3 weeks-1 month post-transfection) was assessed by Bright-Glo luciferase assay (Promega), and determined by subtracting the results with corresponding values obtained from transfection with promoterless pGL4.14[luc2/Hygro] vector alone and by further normalizing the values with copy number of plasmids integrated into the genome of each stable transfectant.

Test [2] concerns tapasin. Put plainly: RT-PCR analysis of APM components: tapasin. The conditions noted are these: HPV-positive carcinoma cell lines, particularly TAP-deficient cells.
The test system of test [3] is TAP-1. Put plainly: RT-PCR and Western blot analysis of TAP-1 expression. The format is cell-based, murine. As to the method:
Fifty micrograms of proteins per sample were separated through 6% (p300, CBP and TAP-1) or 15% (β-actin and acetyl-histone H3) SDS-PAGE. Proteins were transferred to a nitrocellulose membrane (Bio-rad, Hercules, Calif.). Blots were blocked with 5% skim milk in PBS and incubated with appropriate Ab dilutions. […] Secondary Ab used was HRP-conjugated goat anti-rabbit secondary Ab (Jackson Immunoresearch Lab., West Grove, Pa.). For the loading controls, anti β-actin mouse monoclonal Ab (Sigma) was used, followed by HRP-conjugated goat anti-mouse secondary Ab (Pierce, Rockford, Ill.). Blots were developed using Lumi-light reagents (Pierce).
Western blot analysis of TAP-1 expression was performed using lysate of cells that were pre-treated with 20 to 200 ng/ml TSA for 24 to 48 hours, and representative data from cells treated with 100 ng/ml TSA for 24 hours (PA and LMD) or 48 hours (TC-1, D11 and A9) are shown in FIG. 4A.

Test [4] relates to A9 tumor. Put plainly: A9 tumor growth in C57BL/6 syngeneic mice. To be noted: A9 cells s.c., 500 μg/kg daily i.p. for 20 days from day 7, versus DMSO control. The format is in vivo, C57BL/6 mice. How it is done:
A total of 3×10^5 cells of TC-1 or A9 in PBS were injected subcutaneously into seven-week-old female C57BL/6 syngeneic mice (Charles River, St. Constant, QC). Mice were assigned to 3 groups of 4 animals. TSA was dissolved in DMSO to a concentration of 0.2 mg/ml. Daily treatment with 50 ul TSA (500 μg/kg) or DMSO (vehicle control) was administered via intraperitoneal injection for 20 days, starting on day 7 after injection with tumor cells. Mice were weighed weekly, and their behavior and food intake were monitored throughout the course of the experiment. Tumors were measured 3 times a week and tumor volume was calculated using the formula: tumor volume=length×width×height×π/6. The study period was determined by the size of the tumors in the A9 group treated with DMSO vehicle control.
TC-1 and A9 cells were cultured in vitro and were passaged less than 8 times before 3×10^5 of each group of the cells were injected subcutaneously into 7 week-old female C57BL/6 syngeneic mice. Daily treatment with TSA or DMSO vehicle control began on day 7 after cells injection, as the animals started to grow palpable A9 tumors. […] No tumor was detected beyond 1 month after injection with less than 3×10^5 TC-1 tumor cells (data not shown).

Test [5] concerns A9 tumour. The test can be described thus: A9 tumor growth in immunodeficient Rag1 mice. In kind it is in vivo. The conditions noted are these: TSA treatment. As to the method: A9 tumor growth was suppressed in C57B1/6 mice treated daily for 20 days with 500 μg/kg of TSA (black bars) as compared to those treated with DMSO vehicle control (white bars). However, TSA treatment had no affect on A9 tumour growth in Ragl^“7” mice.

Test [6] deals with LMP-2. Put plainly: RT-PCR analysis of APM components: LMP-2. To be noted: HPV-positive carcinoma cell lines, particularly TAP-deficient cells.
Test [7] concerns TAP-1 promoter. Put plainly: Chromatin immunoprecipitation with anti-acetyl-histone H3 antibody, real-time PCR of TAP-1 promoter. The format is cell-based, murine. As to the method:
(§1) As the low level of histone H3 acetylation in TAP-1 promoter seems to contribute to TAP-1 deficiency in carcinomas, a further investigation was conducted to determine whether treatment of TAP-deficient carcinoma cells with TSA would increase the TAP-1 expression in the cells. […] Relative RNA pol II or acetyl-histone H3 levels were determined as the ratio of copy numbers of the eluted TAP-1 promoter and copy numbers of the corresponding inputs. The smallest ratio was arbitrarily determined as 1. Columns, average of three to six experiments; bars, SEM. *P<0.05 compared with cells that expressed higher MHC class I in the same assay.

The target of test [8] is surface H-2K^b (Mus musculus, UniProt P01901). Put plainly: Flow cytometric analysis of surface H-2K^b expression. The format is cell-based, murine. How it is done: Cells untreated (shaded areas) or treated with 100 ng/ml TSA (thick lines), or 50 ng/ml IFN-γ (thin lines), were stained with PE-conjugated anti-H-2K^bmAb. Data are representatives of three experiments.
(In flow cytometry, cells or beads pass a laser one at a time.)

In test [9] the test system is VSV-infected cancer cells. In kind it is cell-based, murine. To be noted: for enhancement of CTL killing / enhancement of levels of killing: treatment 24 hours prior to VSV infection; for enhancement of CTL killing: effector:target 22:1.
Test [10] has as its system TAP-1 promoter. Put plainly: Chromatin immunoprecipitation with anti-RNA pol II antibody, real-time PCR of TAP-1 promoter. In kind it is cell-based, murine. As to the method:
as §1
(In qPCR the cycle at which signal appears reflects the starting amount.)

In test [11] the test system is TAP-2. Put plainly: RT-PCR analysis of APM components: TAP-2. To be noted: HPV-positive carcinoma cell lines, particularly TAP-deficient cells.
Test [12] deals with TAP-1 promoter. Put plainly: Chromatin immunoprecipitation with anti-CBP antibody, real-time PCR of 5'-end of TAP-1 promoter. The conditions noted are these: LMD, D11 and A9 cells, IFN-γ treatment.

surface H-2K^b, sequence (P01901 whole entry, looked up): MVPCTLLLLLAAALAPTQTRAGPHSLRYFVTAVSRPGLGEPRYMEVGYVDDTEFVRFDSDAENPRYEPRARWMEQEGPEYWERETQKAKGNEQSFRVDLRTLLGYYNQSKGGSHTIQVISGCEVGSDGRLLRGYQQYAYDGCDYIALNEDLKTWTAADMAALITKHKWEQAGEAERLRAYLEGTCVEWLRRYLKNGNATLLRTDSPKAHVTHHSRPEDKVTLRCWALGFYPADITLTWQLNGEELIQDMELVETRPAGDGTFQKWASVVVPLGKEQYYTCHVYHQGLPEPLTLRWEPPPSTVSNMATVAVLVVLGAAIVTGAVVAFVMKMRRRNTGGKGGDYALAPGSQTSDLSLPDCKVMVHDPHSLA

As for `CC(/C=C/C(=O)NO)=C\[C@@H](C)C(=O)c1ccc(N(C)C)cc1` [TSA, trichostatin A], the TAP-1 promoter activity entry was “to similar levels as in TAP-expressing cells” in test [1] (HPV-positive carcinoma model, TAP-deficient cells) and “statistically significant improvement” in test [1] (prostate carcinoma model, LMD cells). In addition, the “TAP-1 promoter activity (luc expression)” value in test [1] (TAP-deficient cells stably transfected with pTAP-1-luc) is recorded as “increased significantly”. Further, the expression of tapasin entry in test [2] is given as “up-regulation”. For the same molecule, the “Optimal dose for optimal induction of TAP-1 expression” value in test [3] (24 hours in LMD, CMT.64 and B16, 48 hours in D11 and A9) worked out at 100 ng/mL. The “expression of TAP-1” value in test [3] (RT-PCR and Western blot, 100 ng/ml for 24 h (PA, LMD) or 48 h (TC-1, D11, A9)) was “up-regulated”. Also, the “TAP-1 expression upon increasing the dose” value in test [3] (Western blot, TAP-deficient cells, 20 to 200 ng/ml for 24 to 48 hours) was “increasing levels of TAP-1 expression”. The tumor growth entry in test [4] was “suppressed; also recorded: slower”. For the same molecule, the tumour growth result in [5] is listed as “no affect”. In addition, in [6], the “expression of LMP-2” value is given as “up-regulation”. Further, the “levels of acetyl-histone H3 in TAP-1 promoter” value in [7] (TSA treatment, all cell lines tested) is recorded as “did not significantly alter”. Besides, in [8] (MHC class I-deficient cells, 100 ng/ml TSA), the “increase of surface expression H-2K^b” value is on record as “approximately 10 fold”. The “surface H-2K^b levels” value in test [8] (PA and TC-1 cells (originally high surface H-2K)) is recorded as “remained the same”. Also, the “enhancement of CTL killing” value in test [9] (VSV-infected A9 cells) is around 7 fold; in test [9] (VSV-infected D11 cells), around 6 fold; in test [9] (VSV-infected TC-1 cells) it was “approximately 1.4 fold”. For the same molecule, the “enhancement of levels of killing” value came to 20 fold in test [9] (VSV-infected B16 cells) and 5 fold in [9] (VSV-infected CMT.64 cells). Moreover, the “level of RNA pol II binding to TAP-1 promoter” value in test [10] (TSA treatment, TAP-deficient cells of HPV-positive and prostate carcinoma models) is “to similar levels as in TAP-expressing cells”. In test [10] (TSA treatment, most cell lines, particularly TAP-deficient cells), the “recruitment of RNA pol II complex to the TAP-1 promoter” value is “enhanced”. For the same molecule, in test [11], the “expression of TAP-2” value was “up-regulation”.

B1: IFN-γ: potent inducer of TAP-1 and surface MHC class I expression in cancer cells, used as positive control (protein, UniProt P01579 24-161, looked up)
Interferon gamma: QDPYVKEAENLKKYFNAGHSDVADNGTLFLGILKNWKEESDRKIMQSQIVSFYFKLFKNFKDDQSIQKSVETIKEDMNVKFFNSNKKKRDDFEKLTNYSVTDLNVQRKAIHELIQVMAELSPAAKTGKRKRSQMLFRG
Turning to B1, the “CBP binding to TAP-1 promoter” value in test [12] is recorded as “increase”. The “expression of LMP-2” value in [6] is given as “inducible”. In [7] (IFN-γ treatment), the “level of acetyl-histone H3 in TAP-1 promoter” value is recorded as “increased”. In test [7] (TAP-deficient cells, IFN-γ compared with TSA), the “histone H3 acetylation in TAP-1 promoter” value is “to much higher levels than TSA did”. In test [8] (all cell lines, 50 ng/ml IFN-γ), the “surface H-2K^b expression” value is “increased”. In test [9] (all VSV-infected cell lines, IFN-γ treatment), the “level of killing by CTL” value is recorded as “maximal induction”. Also, the “level of RNA pol II in TAP-1 promoter” value in [10] (IFN-γ treatment) was “increased”. For the same molecule, the “expression of TAP-2” value in test [11] is given as “inducible”.
